From ChEMBL document CHEMBL3272183, “Analgesics. 1. Synthesis and analgesic properties of N-sec-alkyl- and N-tert-alkylnormorphines” (J Med Chem, 1978) come the findings set out here.

Active and inactive are the calls of the source. The rule behind the calls is not given here. Where only a bound is given, the exact number is not on record here.

The term ED50 denotes the dose that gives a 50% effect, or the effect in half of the subjects. The term IC50 denotes the concentration at which inhibition is half-maximal.

Test [1] is filed under the species Mus musculus. The test can be described thus: Analgesic activity in Swiss-Webster mouse assessed as reduction of […]-induced writhing. In kind it is functional. (In general: In writhing tests, fewer writhes than in controls are read as antinociception.)
Test [2] addresses T1, Opioid receptor (Rattus norvegicus, UniProt P33533+P34975+P33535). Kind of test: Displacement of [3H]-naloxone from rat opioid receptor after 30 mins by liquid scintillation counting analysis in presence of NaCl. The format is protein assay.
The species entered for test [3] is Mus musculus. Kind of test: Analgesic activity in Swiss-Webster mouse measured for 20 mins by tail flick test. The format is functional.
In test [4] the test system is Mus musculus. The test can be described thus: In vivo inhibition of morphine-induced straub-tail response in sc dosed Swiss-Webster mouse measured for 30 mins. The note with it: for ED50: 0.5 h. In kind it is functional.
The target in test [5] is T1, Opioid receptor. The test can be described thus: Displacement of [3H]-naloxone from rat opioid receptor after 30 mins by liquid scintillation counting analysis in absence of NaCl. The format is protein assay.

With `Oc1ccc2c3c1O[C@H]1[C@@H](O)C=C[C@H]4[C@@H](C2)N(C2CCCCCC2)CC[C@@]341`, the median effective dose (ED50) in test [1] was 9.9 µmol/kg; in test [3] it was > 136 µmol/kg; in test [4], 60.8 µmol/kg. The IC50 in test [2] is listed as 150 nM; in test [5], 19 nM.
On to `Oc1ccc2c3c1O[C@H]1[C@@H](O)C=C[C@H]4[C@@H](C2)N(C2CCCC2)CC[C@@]341`, for which the ED50 in test [1] worked out at 15.5 µmol/kg; in test [3] it was 124 µmol/kg; in test [4], 15.5 µmol/kg. Moreover, the 50% inhibitory concentration (IC50) was found to be 45 nM in test [2] and 34 nM in test [5].
For `CCC(C)(C)N1CC[C@]23c4c5ccc(O)c4O[C@H]2[C@@H](O)C=C[C@H]3[C@H]1C5`, the figures for the 50% effective dose (ED50) in test [1] and in test [3] were > 290 µmol/kg and > 580 µmol/kg, respectively. The IC50 in test [2] and in test [5] was 1000 nM in each case.
Consider `CC(Cc1ccccc1)N1CC[C@]23c4c5ccc(O)c4O[C@H]2[C@@H](O)C=C[C@H]3[C@H]1C5` (some centres not stated), for which the ED50 came to 0.13 µmol/kg in test [1] and 4.3 µmol/kg in test [3]. Further, the IC50 in test [2] was determined as 125 nM; in test [5], 3.4 nM. Further, in test [4], the inhibition result is “inactive”.
With `Oc1ccc2c3c1O[C@H]1[C@@H](O)C=C[C@H]4[C@@H](C2)N(C2CCCCC2)CC[C@@]341`, the median effective dose (ED50) is 15.7 µmol/kg in test [1] and > 212 µmol/kg in test [3]. In addition, the figures for the IC50 in test [2] and in test [5] were 92 nM and 38 nM, respectively.
As for `Oc1ccc2c3c1O[C@H]1[C@@H](O)C=C[C@H]4[C@@H](C2)N(C2C=CCCC2)CC[C@@]341` (some centres not stated), the concentration for half-maximal inhibition (IC50) in test [2] amounted to 130 nM; in test [5] it was 51 nM. Besides, the median effective dose (ED50) in test [3] was 79.7 µmol/kg; in test [4] it was 23.8 µmol/kg.
On to `CC(C)(Cc1ccccc1)N1CC[C@]23c4c5ccc(O)c4O[C@H]2[C@@H](O)C=C[C@H]3[C@H]1C5`, for which the median effective dose (ED50) in test [1] is > 176 µmol/kg; in test [3], > 310 µmol/kg. Also, the IC50 in test [2] and in test [5] was 1000 nM in each case.
With `C=C[C@H](C)N1CC[C@]23c4c5ccc(O)c4O[C@H]2[C@@H](O)C=C[C@H]3[C@H]1C5`, the 50% inhibitory concentration (IC50) was found to be 25 nM in test [2] and 16 nM in test [5]. Besides, in test [3], the ED50 is 105 µmol/kg.
Turning to `CCCC(C)N1CC[C@]23c4c5ccc(O)c4O[C@H]2[C@@H](O)C=C[C@H]3[C@H]1C5` (some centres not stated), the values for the ED50 in test [1], in test [3] and in test [4] were 9 µmol/kg, > 439 µmol/kg and 80.8 µmol/kg, respectively. Moreover, the half-inhibitory concentration (IC50) in test [2] is recorded as 340 nM; in test [5] it was 37 nM.
Turning to `Oc1ccc2c3c1O[C@H]1[C@@H](O)C=C[C@H]4[C@@H](C2)N(CCc2ccccc2)CC[C@@]341`, the ED50 in test [1] was 0.27 µmol/kg; in test [3], 1.7 µmol/kg. The 50% inhibitory concentration (IC50) was determined as 133 nM in test [2] and 4.2 nM in test [5]. Further, in test [4], the inhibition entry is “inactive”.
On to `CC[C@@H](C)N1CC[C@]23c4c5ccc(O)c4O[C@H]2[C@@H](O)C=C[C@H]3[C@H]1C5`, for which the figures for the IC50 in test [2] and in test [5] were 110 nM and 60 nM, respectively.
Taken in the same sequence, the figures for `CCC(CC)N1CC[C@]23c4c5ccc(O)c4O[C@H]2[C@@H](O)C=C[C@H]3[C@H]1C5` were 175 nM and 78 nM.
Consider `CCCN1CC[C@]23c4c5ccc(O)c4O[C@H]2[C@@H](O)C=C[C@H]3[C@H]1C5`, for which the ED50 in test [1] is 29 µmol/kg; in test [3], 51 µmol/kg; in test [4] it was 0.6 µmol/kg. Moreover, the IC50 in test [2] and in test [5] was 14 nM each time.
In the case of `C=CCN1CC[C@]23c4c5ccc(O)c4O[C@H]2[C@@H](O)C=C[C@H]3[C@H]1C5` [NALORPHINE], the ED50 in test [1] was 3.2 µmol/kg. In addition, the IC50 is on record as 6 nM in test [2] and 2 nM in test [5].
As to `C=C[C@@H](C)N1CC[C@]23c4c5ccc(O)c4O[C@H]2[C@@H](O)C=C[C@H]3[C@H]1C5`, the figures for the half-maximal inhibitory concentration (IC50) in test [2] and in test [5] were 80 nM and 27 nM, respectively.
Taken in the same sequence, the figures for `CC[C@H](C)N1CC[C@]23c4c5ccc(O)c4O[C@H]2[C@@H](O)C=C[C@H]3[C@H]1C5` were 62 nM and 28 nM.
As for `CN1CC[C@]23c4c5ccc(O)c4O[C@H]2[C@@H](O)C=C[C@H]3[C@H]1C5` [MORPHINE], the ED50 in test [1] was found to be 1.5 µmol/kg; in test [3], 10.5 µmol/kg. For the same molecule, the inhibition entry in test [4] was “inactive”.
As to `C=CC(C)(C)N1CC[C@]23c4c5ccc(O)c4O[C@H]2[C@@H](O)C=C[C@H]3[C@H]1C5`, the results for the ED50 in test [1] and in test [3] were 74 µmol/kg and > 295 µmol/kg, respectively. In addition, the half-inhibitory concentration (IC50) in test [2] and in test [5] was > 1000 nM throughout.
